What all share (test): microbe, parasite or virus in culture
One assay relates to T1, A. baumannii ATCC 19606.
T1 construct: ATCC 19606
The conditions noted are these: Acinetobacter baumannii, ATCC19606. The method, then: (§1) MICs were determined by a microdilution broth method as recommended by the CLSI with MHB-II. For MICs of stable analogues, a 2-fold dilution of each compound was prepared in DMSO at 100-fold of the final concentration. The strains were inoculated with 5 × 10^5 cfu/mL in 96-well plates (each 100 μL/well), and 1 μL of DMSO solutions of the samples were added (contained less than 1% DMSO). The plates were incubated at 37 °C for 18 h and then MICs were determined. MICs of stable analogues in Table 1 were the highest value in three trials. MICs in Supplementary Table 1 were determined in one trial.  Fig. 2 Results of biological evaluations of hydrazone library. a General structures of hydrazine fragment moiety are shown. Each hydrazine class are represented by different colours (green; BZ, cyan; PA, grey; AC, yellow; AA, orange; LA). b–h MraY inhibitory activity and antibacterial activity of the hydrazone library. The bar graphs show the relative enzyme activity with DMSO as 100% when the compound is treated at given concentration (b,c; TUN at 100 nM, d,e; MRY at 10 nM, f.g; MRD at 100 nM, h; CAP at 1000 nM. n = 1), with the lower bars indicating higher inhibitory activity. The colour of the bars corresponds to Fig. 2a. […] Data of control compounds (van: vancomycin, col: colistin) are shown left column in each panel. E. faecium ATCC 35667, S. aureus ATCC 29213, P. aeruginosa ATCC 27853, K. pneumoniae ATCC 13883, E. cloacae ATCC 13047, A. baumannii ATCC 19606, E. coli ATCC 25922.

The subject of the next assay is T2, E. coli ATCC 25922.
T2 construct: ATCC 25922
To be noted: Escherichia coli, ATCC25922. The method, then:
as §1

The next assay concerns T3, P. aeruginosa ATCC 27853.
T3 construct: ATCC 27853
To be noted: Pseudomonas aeruginosa, ATCC27853. The method, then:
as §1

Values after ≈ are worked out from the molar mass of the structure shown.

Take `CC1(C)S[C@@H]2[C@H](NC(=O)[C@H](N)c3ccccc3)C(=O)N2[C@H]1C(=O)O` [ampicillin]: the MIC is 50 µM (≈ 17.5 µg/mL) against A. baumannii ATCC 19606, 50 µM (≈ 17.5 µg/mL) in the assay on E. coli ATCC 25922 and over 50 µM in the assay on P. aeruginosa ATCC 27853.

Consider `CN[C@H](CC(C)C)C(=O)N[C@H]1C(=O)N[C@@H](CC(N)=O)C(=O)N[C@H]2C(=O)N[C@H]3C(=O)N[C@H](C(=O)N[C@H](C(=O)O)c4cc(O)cc(O)c4-c4cc3ccc4O)[C@H](O)c3ccc(c(Cl)c3)Oc3cc2cc(c3O[C@@H]2O[C@H](CO)[C@@H](O)[C@H](O)[C@H]2O[C@H]2C[C@](C)(N)[C@H](O)[C@H](C)O2)Oc2ccc(cc2Cl)[C@H]1O` [vancomycin], for which the MIC was 50 µM (≈ 72.5 µg/mL) in the assay with A. baumannii ATCC 19606, over 50 µM with E. coli ATCC 25922 and over 50 µM against P. aeruginosa ATCC 27853.
